Source: patent US6953855B2 (priority 1998, dated 2005)

The compounds below were run against T1, muscle-type receptors (α1β1γδ subtype in human TE671/RD clonal cells) (Homo sapiens, UniProt P02708+P07510+Q07001) (assay: cell-based). Conditions: read-out: agonist activity, % of nicotine's response (human muscle).
T1 construct: endogenous in cells; host or cells: human TE671/RD rhabdomyosarcoma cells
T1 sequence (P02708 21-457): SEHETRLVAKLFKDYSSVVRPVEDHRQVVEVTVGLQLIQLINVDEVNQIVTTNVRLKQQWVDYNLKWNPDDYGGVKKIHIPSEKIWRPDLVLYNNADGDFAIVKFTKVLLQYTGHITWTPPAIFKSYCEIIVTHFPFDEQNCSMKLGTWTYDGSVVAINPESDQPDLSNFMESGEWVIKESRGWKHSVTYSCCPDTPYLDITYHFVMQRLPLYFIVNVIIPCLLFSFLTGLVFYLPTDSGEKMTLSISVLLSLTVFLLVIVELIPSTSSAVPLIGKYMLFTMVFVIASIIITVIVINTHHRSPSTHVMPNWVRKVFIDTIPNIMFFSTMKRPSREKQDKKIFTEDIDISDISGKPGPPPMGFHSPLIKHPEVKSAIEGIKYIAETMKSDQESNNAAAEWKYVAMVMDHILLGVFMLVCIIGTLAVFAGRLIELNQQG
T1 sequence (P11230 24-501 partner): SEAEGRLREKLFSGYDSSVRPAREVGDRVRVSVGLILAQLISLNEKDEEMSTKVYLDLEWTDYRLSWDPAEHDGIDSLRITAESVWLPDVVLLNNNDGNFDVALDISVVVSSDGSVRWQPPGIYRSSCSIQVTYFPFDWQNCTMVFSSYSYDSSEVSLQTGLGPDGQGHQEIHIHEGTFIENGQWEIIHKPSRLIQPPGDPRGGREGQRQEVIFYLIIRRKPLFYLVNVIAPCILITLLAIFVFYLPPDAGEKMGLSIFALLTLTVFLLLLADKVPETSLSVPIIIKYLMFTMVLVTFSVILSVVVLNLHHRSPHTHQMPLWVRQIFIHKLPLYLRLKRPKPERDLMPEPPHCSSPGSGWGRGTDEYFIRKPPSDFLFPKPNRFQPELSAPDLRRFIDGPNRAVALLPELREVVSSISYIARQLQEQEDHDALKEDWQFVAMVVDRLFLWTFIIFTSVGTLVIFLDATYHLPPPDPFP
T1 sequence (P07510 23-517): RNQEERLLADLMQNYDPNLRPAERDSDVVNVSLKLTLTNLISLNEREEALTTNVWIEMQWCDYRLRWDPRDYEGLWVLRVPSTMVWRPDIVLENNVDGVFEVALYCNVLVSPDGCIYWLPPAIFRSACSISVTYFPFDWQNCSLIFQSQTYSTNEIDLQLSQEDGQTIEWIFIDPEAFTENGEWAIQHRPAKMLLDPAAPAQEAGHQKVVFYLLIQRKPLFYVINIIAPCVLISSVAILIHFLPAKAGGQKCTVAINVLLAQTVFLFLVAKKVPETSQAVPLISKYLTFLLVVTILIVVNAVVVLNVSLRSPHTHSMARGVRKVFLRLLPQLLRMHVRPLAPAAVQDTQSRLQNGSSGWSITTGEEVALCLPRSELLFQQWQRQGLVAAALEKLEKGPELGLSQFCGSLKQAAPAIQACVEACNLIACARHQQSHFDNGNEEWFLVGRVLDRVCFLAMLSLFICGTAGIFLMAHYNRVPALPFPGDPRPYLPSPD
T1 sequence (Q07001 22-517): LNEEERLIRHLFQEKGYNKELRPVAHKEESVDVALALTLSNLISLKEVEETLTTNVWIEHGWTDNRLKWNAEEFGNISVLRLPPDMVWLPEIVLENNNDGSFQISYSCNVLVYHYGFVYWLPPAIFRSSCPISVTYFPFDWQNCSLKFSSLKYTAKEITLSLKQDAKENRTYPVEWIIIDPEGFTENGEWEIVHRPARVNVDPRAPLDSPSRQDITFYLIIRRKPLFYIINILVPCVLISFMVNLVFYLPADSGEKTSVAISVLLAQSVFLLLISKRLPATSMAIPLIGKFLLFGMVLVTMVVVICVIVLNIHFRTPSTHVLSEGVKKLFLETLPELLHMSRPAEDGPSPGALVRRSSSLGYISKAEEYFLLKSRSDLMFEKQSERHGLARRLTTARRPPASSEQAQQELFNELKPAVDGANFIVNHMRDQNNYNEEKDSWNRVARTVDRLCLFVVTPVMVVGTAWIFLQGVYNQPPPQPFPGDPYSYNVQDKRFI

Row | Structure (SMILES) | activation at 100 µM [%]
1 | O=C(Nc1ccc(Cl)c(Cl)c1)NC1C2CCN(CC2)C1Cc1cccnc1 (centres unmarked) [Compound 23, N-(3,4-dichlorophenyl)-N′-(2-((3-pyridinyl)methyl)-1-azabicyclo[2.2.2]oct-3-yl)urea] | 1 to 12
2 | O=C(C=Cc1ccccc1O)NC1C2CCN(CC2)C1Cc1cccnc1 (centres unmarked) [Compound 34, N-(2-((3-pyridinyl)methyl)-1-azabicyclo[2.2.2]oct-3-yl)-3-(2-hydroxyphenyl)prop-2-enamide] | 1 to 12
3 | COc1cccc(C(=O)NC2C3CCN(CC3)C2Cc2cccnc2)c1 (centres unmarked) [Compound 14, N-(2-((3-pyridinyl)methyl)-1-azabicyclo[2.2.2]oct-3-yl)-3-methoxybenzamide] | 1 to 12
4 | COc1cccc(C=CC(=O)NC2C3CCN(CC3)C2Cc2cccnc2)c1 (centres unmarked) [Compound 32, N-(2-((3-pyridinyl)methyl)-1-azabicyclo[2.2.2]oct-3-yl)-3-(3-methoxyphenyl)prop-2-enamide] | 1 to 12
5 | O=C(C=Cc1cccc(O)c1)NC1C2CCN(CC2)C1Cc1cccnc1 (centres unmarked) [Compound 31, N-(2-((3-pyridinyl)methyl)-1-azabicyclo[2.2.2]oct-3-yl)-3-(3-hydroxyphenyl)prop-2-enamide] | 1 to 12
6 | COc1ccc(NC(=O)OC2C3CCN(CC3)C2Cc2cccnc2)cc1 (centres unmarked) [Compound 4, 2-((3-pyridinyl)methyl)-1-azabicyclo[2.2.2]oct-3-yl N-(4-methoxyphenyl)carbamate] | 1 to 12
7 | COc1ccc(NC(=O)NC2C3CCN(CC3)C2Cc2cccnc2)cc1 (centres unmarked) [Compound 24, N-(4-methoxyphenyl)-N′-(2-((3-pyridinyl)methyl)-1-azabicyclo[2.2.2]oct-3-yl)urea] | 1 to 12
8 | O=C(NC1C2CCN(CC2)C1Cc1cccnc1)c1cc2ccccc2o1 (centres unmarked) [Compound 9, N-(2-((3-pyridinyl)methyl)-1-azabicyclo[2.2.2]oct-3-yl)benzofuran-2-carboxamide] | 1 to 12
9 | O=C(NC1C2CCN(CC2)C1Cc1cccnc1)c1ccc(F)cc1 (centres unmarked) [Compound 8, N-(2-((3-pyridinyl)methyl)-1-azabicyclo[2.2.2]oct-3-yl)-4-fluorobenzamide] | 1 to 12
10 | CN(C)c1ccc(NC(=O)NC2C3CCN(CC3)C2Cc2cccnc2)cc1 (centres unmarked) [Compound 25, N-(4-dimethylaminophenyl)-N′-(2-((3-pyridinyl)methyl)-1-azabicyclo[2.2.2]oct-3-yl)urea] | 1 to 12
11 | O=C(C=Cc1ccc(Cl)cc1)NC1C2CCN(CC2)C1Cc1cccnc1 (centres unmarked) [Compound 29, N-(2-((3-pyridinyl)methyl)-1-azabicyclo[2.2.2]oct-3-yl)-3-(4-chlorophenyl)prop-2-enamide] | 1 to 12
12 | O=C(Nc1ccc(Br)cc1)NC1C2CCN(CC2)C1Cc1cccnc1 (centres unmarked) [Compound 20, N-(4-bromophenyl)-N′-(2-((3-pyridinyl)methyl)-1-azabicyclo[2.2.2]oct-3-yl)urea] | 1 to 12
13 | CSc1ccc(NC(=O)NC2C3CCN(CC3)C2Cc2cccnc2)cc1 (centres unmarked) [Compound 18, N-(4-methylthiophenyl)-N′-(2-((3-pyridinyl)methyl)-1-azabicyclo[2.2.2]oct-3-yl)urea] | 1 to 12
14 | CN(C(=O)Nc1ccc(Br)cc1)C1C2CCN(CC2)C1Cc1cccnc1 (centres unmarked) [Compound 27, N-(4-bromophenyl)-N′-methyl-N′-(2-((3-pyridinyl)methyl)-1-azabicyclo [2.2.2]oct-3-yl)urea] | 1 to 12
15 | COc1ccccc1NC(=O)NC1C2CCN(CC2)C1Cc1cccnc1 (centres unmarked) [Compound 21, N-(2-methoxyphenyl)-N′-(2-((3-pyridinyl)methyl)-1-azabicyclo[2.2.2]oct-3-yl)urea] | 1 to 12
16 | O=C(C=Cc1ccccc1)NC1C2CCN(CC2)C1Cc1cccnc1 (centres unmarked) [Compound 28, N-(2-((3-pyridinyl)methyl)-1-azabicyclo[2.2.2]oct-3-yl)3-phenylprop-2-enamide] | 1 to 12
17 | O=C(Nc1cccc(F)c1)NC1C2CCN(CC2)C1Cc1cccnc1 (centres unmarked) [Compound 19, N-(3-fluorophenyl)-N′-(2-((3-pyridinyl)methyl)-1-azabicyclo[2.2.2]oct-3-yl)urea] | 1 to 12
18 | O=C(Nc1ccc(F)cc1)OC1C2CCN(CC2)C1Cc1cccnc1 (centres unmarked) [Compound 3, 2-((3-pyridinyl)methyl)-1-azabicyclo[2.2.2]oct-3-yl N-(4-fluorophenyl)carbamate] | 1 to 12
19 | CN(C(=O)Nc1ccccc1)C1C2CCN(CC2)C1Cc1cccnc1 (centres unmarked) [Compound 26, N-phenyl-N′-methyl-N′-(2-((3-pyridinyl)methyl)-1-azabicyclo[2.2.2]oct-3-yl)urea] | 1 to 12
20 | O=C(Nc1ccc(Oc2ccccc2)cc1)NC1C2CCN(CC2)C1Cc1cccnc1 (centres unmarked) [Compound 17, N-(4-phenoxyphenyl)-N′-(2-((3-pyridinyl)methyl)-1-azabicyclo[2.2.2]oct-3-yl)urea] | 1 to 12
21 | O=C(NC1C2CCN(CC2)C1Cc1cccnc1)c1cccc(Br)c1 (centres unmarked) [Compound 15, N-(2-((3-pyridinyl)methyl)-1-azabicyclo[2.2.2]oct-3-yl)-3-bromobenzamide] | 1 to 12
22 | COc1ccc(NC(=O)NC2C3CCN(CC3)C2Cc2cccnc2)c(OC)c1 (centres unmarked) [Compound 22, N-(2,4-dimethoxyphenyl)-N′-(2-((3-pyridinyl)methyl)-1-azabicyclo[2.2.2]oct-3-yl)urea] | 1 to 12
23 | CSc1ccc(NC(=O)OC2C3CCN(CC3)C2Cc2cccnc2)cc1 (centres unmarked) [Compound 5, 2-((3-pyridinyl)methyl)-1-azabicyclo[2.2.2]oct-3-yl N-(4-methylthiophenyl)carbamate] | 1 to 12
24 | O=C(NC1C2CCN(CC2)C1Cc1cccnc1)c1ccccc1 (centres unmarked) [Compound 13, N-(2-((3-pyridinyl)methyl)-1-azabicyclo[2.2.2]oct-3-yl)benzamide] | 1 to 12
25 | O=C(Nc1ccccc1)NC1C2CCN(CC2)C1Cc1cccnc1 (centres unmarked) [Compound 16, N-phenyl-N′-(2-((3-pyridinyl)methyl)-1-azabicyclo[2.2.2]oct-3-yl)urea] | 1 to 12
26 | O=C(C=Cc1ccc(Br)cc1)NC1C2CCN(CC2)C1Cc1cccnc1 (centres unmarked) [Compound 30, N-(2-((3-pyridinyl)methyl)-1-azabicyclo[2.2.2]oct-3-yl)-3-(4-bromophenyl)prop-2-enamide] | 1 to 12
27 | O=C(Nc1ccc(Br)cc1)OC1C2CCN(CC2)C1Cc1cccnc1 (centres unmarked) [Compound 1, 2-((3-pyridinyl)methyl)-1-azabicyclo[2.2.2]oct-3-yl N-(4-bromophenyl)carbamate] | 1 to 12
28 | O=C(C=Cc1ccccc1F)NC1C2CCN(CC2)C1Cc1cccnc1 (centres unmarked) [Compound 33, N-(2-((3-pyridinyl)methyl)-1-azabicyclo[2.2.2]oct-3-yl)-3-(2-fluorophenyl)prop-2-enamide] | 1 to 12
29 | O=C(NC1C2CCN(CC2)C1Cc1cccnc1)c1ccc(Br)cc1 (centres unmarked) [Compound 10, N-(2-((3-pyridinyl)methyl)-1-azabicyclo[2.2.2]oct-3-yl)-4-bromobenzamide] | 1 to 12
